Assays:
Format in all cases: in vivo
[1] = system: Echinochloa crus-galli; test: Test Example 3: herbicidal effect test by soil application in upland field; details: Echinochloa crus-galli, 120 g per 10 ares, sprayed one day after sowing, 14 days after application, read-out: weed inhibition rate
How it was run: (§1)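 Weed inhibition (%) was assessed 14 days after treatment, in duplicate per concentration group. Seeds had been mixed into the upper 1 cm of upland alluvial loam, and the soil surface was sprayed one day later with the diluted emulsifiable concentrate at 120 g active ingredient per 10 ares.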

[2] = system: Digitaria ciliaris; test: as above; details: Digitaria ciliaris, 120 g per 10 ares, sprayed one day after sowing, 14 days after application, read-out: weed inhibition rate
How it was run: as §1

[3] = system: Echinochloa crus-galli; test: Test Example 8: herbicidal effect test by stem and leaf treatment in upland field (low dose); details: Echinochloa crus-galli; 7.5 g per 10 ares; sprayed seven days after sowing, upland soil; 14 days after application; read-out: weed inhibition rate
[4] = system: Digitaria ciliaris; test: as above; details: Digitaria ciliaris; 7.5 g per 10 ares; sprayed seven days after sowing, upland soil; 14 days after application; read-out: weed inhibition rate
[5] = system: Digitaria ciliaris; test: Test Example 4: herbicidal effect test by stem and leaf treatment in upland field; details: Digitaria ciliaris; 120 g per 10 ares; sprayed seven days after sowing, upland soil; 14 days after application; read-out: weed inhibition rate
[6] = system: Echinochloa crus-galli var. formosensis; test: Test Example 6: herbicidal effect test by application during growth period of paddy rice (low dose); details: Echinochloa crus-galli; 7.5 g per 10 ares; applied seven days after sowing, flooded pots; 14 days after application; read-out: weed inhibition rate
How it was run: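 Emulsifiable concentrate, water-diluted, dropped onto flooded paddy pots 7 days post-sowing at 7.5 g active ingredient/10 a. Greenhouse-grown weeds; percent inhibition scored at day 14 after treatment.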

[7] = system: Echinochloa crus-galli var. formosensis; test: Test Example 1: herbicidal effect test by soil application in paddy rice; details: Echinochloa crus-galli, soil, 336 h; 120 g active ingredient per 10 ares; applied immediately after sowing, flooded pots; 14 days after application; read-out: weed inhibition rate
How it was run: (§2)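 Pre-emergence paddy treatment: diluted emulsifiable concentrate applied by dropper at 120 g a.i./10 ares immediately after sowing. Seeds (30 per species, 0–1 cm deep) in fertilized, puddled paddy soil kept under ~3 cm flood in a glass greenhouse.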

[8] = system: Scirpus juncoides; test: as above; details: Schoenoplectiella juncoides, soil, 336 h; 120 g active ingredient per 10 ares; applied immediately after sowing, flooded pots; 14 days after application; read-out: weed inhibition rate
How it was run: as §2

[9] = system: Echinochloa crus-galli var. formosensis; test: Test Example 5: herbicidal effect test by soil application in paddy rice (low dose); details: Echinochloa crus-galli, soil, 336 h; 7.5 g per 10 ares; applied immediately after sowing, flooded pots; 14 days after application; read-out: weed inhibition rate
How it was run: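 Dose of 7.5 g a.i. per 10 ares, applied by dropper as diluted emulsifiable concentrate to flooded (~3 cm) paddy pots immediately after sowing seeds at 0–1 cm. Kept in a glass greenhouse; duplicate pots rated at 14 days post-application.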

[10] = system: Echinochloa crus-galli var. formosensis; test: Test Example 2: herbicidal effect test by application during growth period of paddy rice; details: Echinochloa crus-galli; 120 g per 10 ares; applied seven days after sowing, flooded pots; 14 days after application; read-out: weed inhibition rate
How it was run: (§3)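 Herbicidal effect was scored 14 days after treatment, in duplicate per concentration. Weeds sown 0–1 cm deep in puddled, fertilized paddy soil under about 3 cm of standing water received a water-diluted emulsifiable concentrate by dropper 7 days post-sowing, at 120 g a.i. per 10 ares.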

[11] = system: Scirpus juncoides; test: as above; details: Schoenoplectiella juncoides; 120 g per 10 ares; applied seven days after sowing, flooded pots; 14 days after application; read-out: weed inhibition rate
How it was run: as §3

[12] = system: Echinochloa crus-galli; test: Test Example 7: herbicidal effect test by soil application in upland field (low dose); details: Echinochloa crus-galli, 7.5 g per 10 ares, sprayed one day after sowing, 14 days after application, read-out: weed inhibition rate
How it was run: (§4)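 Pre-emergence soil treatment: 7.5 g a.i. per 10 a applied as water-diluted emulsifiable concentrate (100 L/10 a) to soil surface one day post-sowing in alluvial loam. Inhibition (%) assessed at 14 days, duplicate pots per concentration.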

[13] = system: Digitaria ciliaris; test: as above; details: Digitaria ciliaris, 7.5 g per 10 ares, sprayed one day after sowing, 14 days after application, read-out: weed inhibition rate
How it was run: as §4

[14] = system: Echinochloa crus-galli; test: Test Example 4: herbicidal effect test by stem and leaf treatment in upland field; details: Echinochloa crus-galli; 120 g per 10 ares; sprayed seven days after sowing, upland soil; 14 days after application; read-out: weed inhibition rate

CC(C)C12CC(OCc3c(F)cccc3F)C(C)(CC1I)O2 (centres unmarked) [1-1446, 5-[(2,6-difluorophenyl)methoxy]-2-iodo-1-isopropyl-4-methyl-7-oxabicyclo[2.2.1]heptane]
≥ 80%: inhibition at 1200 g/ha [1] | inhibition at 1200 g/ha [2] | inhibition at 75 g/ha [3] | inhibition at 75 g/ha [4] | inhibition at 1200 g/ha [5] | inhibition at 75 g/ha [6] | pest or weed control at 1200 g/ha [7] | pest or weed control at 1200 g/ha [8] | inhibition at 75 g/ha [9] | inhibition at 1200 g/ha [10] | inhibition at 1200 g/ha [11] | inhibition at 75 g/ha [12] | inhibition at 75 g/ha [13] | inhibition at 1200 g/ha [14]

CC(C)[C@]12C[C@@H](OCc3c(F)cccc3F)[C@](C)(C[C@@H]1Cl)O2 [1-14, (1R,2S,4S,5R)-2-chloro-5-[(2,6-difluorophenyl)methoxy]-1-isopropyl-4-methyl-7-oxabicyclo[2.2.1]heptane]
≥ 80%: inhibition at 1200 g/ha [1] | inhibition at 1200 g/ha [2] | inhibition at 75 g/ha [3] | inhibition at 75 g/ha [4] | inhibition at 1200 g/ha [5] | inhibition at 75 g/ha [6] | pest or weed control at 1200 g/ha [7] | pest or weed control at 1200 g/ha [8] | inhibition at 75 g/ha [9] | inhibition at 1200 g/ha [10] | inhibition at 1200 g/ha [11] | inhibition at 75 g/ha [12] | inhibition at 75 g/ha [13] | inhibition at 1200 g/ha [14]

CC(C)C12CC(OCc3ccccc3Br)C(C)(CC1I)O2 (centres unmarked) [1-1427, 5-[(2-bromophenyl)methoxy]-2-iodo-1-isopropyl-4-methyl-7-oxabicyclo[2.2.1]heptane]
≥ 80%: inhibition at 1200 g/ha [1] | inhibition at 1200 g/ha [2] | inhibition at 75 g/ha [3] | inhibition at 75 g/ha [4] | inhibition at 1200 g/ha [5] | inhibition at 75 g/ha [6] | pest or weed control at 1200 g/ha [7] | pest or weed control at 1200 g/ha [8] | inhibition at 75 g/ha [9] | inhibition at 1200 g/ha [10] | inhibition at 1200 g/ha [11] | inhibition at 75 g/ha [12] | inhibition at 75 g/ha [13] | inhibition at 1200 g/ha [14]

CCNC(=O)O[C@H]1C[C@]2(C)O[C@@]1(C(C)C)C[C@H]2OCc1ccccc1F [1-1615, [(1R,2S,4S,5R)-5-[(2-fluorophenyl)methoxy]-1-isopropyl-4-methyl-7-oxabicyclo[2.2.1]heptan-2-yl] N-ethylcarbamate]
≥ 80%: inhibition at 1200 g/ha [1] | inhibition at 1200 g/ha [2] | inhibition at 75 g/ha [3] | inhibition at 75 g/ha [4] | inhibition at 1200 g/ha [5] | inhibition at 75 g/ha [6] | pest or weed control at 1200 g/ha [7] | pest or weed control at 1200 g/ha [8] | inhibition at 75 g/ha [9] | inhibition at 1200 g/ha [10] | inhibition at 1200 g/ha [11] | inhibition at 75 g/ha [12] | inhibition at 75 g/ha [13] | inhibition at 1200 g/ha [14]

CC(C)[C@]12C[C@@H](OCc3ccccc3I)[C@](C)(C[C@@H]1I)O2 [1-762, (1R,2S,4S,5R)-2-iodo-5-[(2-iodophenyl)methoxy]-1-isopropyl-4-methyl-7-oxabicyclo[2.2.1]heptane]
≥ 80%: inhibition at 1200 g/ha [1] | inhibition at 1200 g/ha [2] | inhibition at 75 g/ha [3] | inhibition at 75 g/ha [4] | inhibition at 1200 g/ha [5] | inhibition at 75 g/ha [6] | pest or weed control at 1200 g/ha [7] | pest or weed control at 1200 g/ha [8] | inhibition at 75 g/ha [9] | inhibition at 1200 g/ha [10] | inhibition at 1200 g/ha [11] | inhibition at 75 g/ha [12] | inhibition at 75 g/ha [13] | inhibition at 1200 g/ha [14]

CC(C)[C@]12C[C@@H](OCc3c(F)cccc3Br)[C@](C)(C[C@@H]1I)O2 [1-1614, (1R,2S,4S,5R)-5-[(2-bromo-6-fluoro-phenyl)methoxy]-2-iodo-1-isopropyl-4-methyl-7-oxabicyclo[2.2.1]heptane]
≥ 80%: inhibition at 1200 g/ha [1] | inhibition at 1200 g/ha [2] | inhibition at 75 g/ha [3] | inhibition at 75 g/ha [4] | inhibition at 1200 g/ha [5] | inhibition at 75 g/ha [6] | pest or weed control at 1200 g/ha [7] | pest or weed control at 1200 g/ha [8] | inhibition at 75 g/ha [9] | inhibition at 1200 g/ha [10] | inhibition at 1200 g/ha [11] | inhibition at 75 g/ha [12] | inhibition at 75 g/ha [13] | inhibition at 1200 g/ha [14]

CC(C)C12CC(OCc3ccsc3)C(C)(CC1I)O2 (centres unmarked) [1-1457, 2-iodo-1-isopropyl-4-methyl-5-(3-thienylmethoxy)-7-oxabicyclo[2.2.1]heptane]
≥ 80%: inhibition at 1200 g/ha [1] | inhibition at 1200 g/ha [2] | inhibition at 75 g/ha [3] | inhibition at 75 g/ha [4] | inhibition at 1200 g/ha [5] | inhibition at 75 g/ha [6] | pest or weed control at 1200 g/ha [7] | pest or weed control at 1200 g/ha [8] | inhibition at 75 g/ha [9] | inhibition at 1200 g/ha [10] | inhibition at 1200 g/ha [11] | inhibition at 75 g/ha [12] | inhibition at 75 g/ha [13] | inhibition at 1200 g/ha [14]

CC(C)[C@]12C[C@@H](OCc3ccccc3Cl)[C@](C)(C[C@@H]1Cl)O2 [1-13, (1R,2S,4S,5R)-2-chloro-5-[(2-chlorophenyl)methoxy]-1-isopropyl-4-methyl-7-oxabicyclo[2.2.1]heptane]
≥ 80%: inhibition at 1200 g/ha [1] | inhibition at 1200 g/ha [2] | inhibition at 75 g/ha [3] | inhibition at 75 g/ha [4] | inhibition at 1200 g/ha [5] | inhibition at 75 g/ha [6] | pest or weed control at 1200 g/ha [7] | pest or weed control at 1200 g/ha [8] | inhibition at 75 g/ha [9] | inhibition at 1200 g/ha [10] | inhibition at 1200 g/ha [11] | inhibition at 75 g/ha [12] | inhibition at 75 g/ha [13] | inhibition at 1200 g/ha [14]

CC(C)[C@]12C[C@@H](OCc3c(Cl)cccc3Cl)[C@](C)(C[C@@H]1Cl)O2 [1-652, (1R,2S,4S,5R)-2-chloro-5-[(2,6-dichlorophenyl)methoxy]-1-isopropyl-4-methyl-7-oxabicyclo[2.2.1]heptane]
≥ 80%: inhibition at 1200 g/ha [1] | inhibition at 1200 g/ha [2] | inhibition at 75 g/ha [3] | inhibition at 75 g/ha [4] | inhibition at 1200 g/ha [5] | inhibition at 75 g/ha [6] | pest or weed control at 1200 g/ha [7] | pest or weed control at 1200 g/ha [8] | inhibition at 75 g/ha [9] | inhibition at 1200 g/ha [10] | inhibition at 1200 g/ha [11] | inhibition at 75 g/ha [12] | inhibition at 75 g/ha [13] | inhibition at 1200 g/ha [14]

COc1ccccc1COC1CC2(C(C)C)OC1(C)CC2I (centres unmarked) [1-1415, 5-iodo-2-[(2-methoxyphenyl)methoxy]-1-methyl-4-isopropyl-7-oxabicyclo[2.2.1]heptane]
≥ 80%: inhibition at 1200 g/ha [1] | inhibition at 1200 g/ha [2] | inhibition at 75 g/ha [3] | inhibition at 75 g/ha [4] | inhibition at 1200 g/ha [5] | inhibition at 75 g/ha [6] | pest or weed control at 1200 g/ha [7] | pest or weed control at 1200 g/ha [8] | inhibition at 75 g/ha [9] | inhibition at 1200 g/ha [10] | inhibition at 1200 g/ha [11] | inhibition at 75 g/ha [12] | inhibition at 75 g/ha [13] | inhibition at 1200 g/ha [14]

Reference: patent EP4707280A1, “1,4-CINEOLE DERIVATIVE AND INTERMEDIATE THEREOF, HERBICIDE CONTAINING SAID DERIVATIVE AS ACTIVE INGREDIENT, METHOD FOR USING HERBICIDE, AND METHOD FOR PREPARING AGROCHEMICAL COMPOSITION” (HOKKO CHEMICAL INDUSTRY CO., LTD., priority 2023, dated 2024)
